Values quoted from earlier work in patent US20070298107A1, “Pharmaceutical Compositions of Mirtazapine” (AUROBINDO PHARMA LTD., priority 2003, published 2007).

Details: background statement

solubility in water: essentially insoluble
SMILES: CN1CCN2c3ncccc3Cc3ccccc3C2C1 (stereo not shown) [Mirtazapine]
